In assay [1] the test system is Suid alphaherpesvirus 1. In words: Antiviral activity against pseudorabies virus strain Anjeszky A2 was determined as zone of plaque inhibition. Also noted: unit not given here. Format: functional.
Assay [2] has as its system Newcastle disease virus. Put plainly: Antiviral activity against newcastle disease virus strain Russeff (NDV) was determined as zone of plaque inhibition. Format: functional, avian paramyxovirus 1.
Assay [3] concerns Influenza A virus. In words: Antiviral effect against influenza virus A strain H7N7 (FPV) by the difference between zone of plaque inhibition and zone of cytotoxicity. The assay is classed as functional, unidentified influenza virus.
The subject of assay [4] is Suid alphaherpesvirus 1. In words: Antiviral activity against pseudorabies virus strain Anjeszky A2 was determined as zone of cytotoxicity. Format: functional. Also noted: unit not given here.
For assay [5], the system named is Suid alphaherpesvirus 1. Put plainly: Antiviral effect against pseudorabies virus strain Anjeszky A2 by the difference between zone of plaque inhibition and zone of cytotoxicity; (6-10 mm). The assay is classed as functional.
In assay [6] the test system is Influenza A virus. Put plainly: Antiviral activity against influenza virus A strain H7N7 (FPV) was determined as zone of cytotoxicity. Format: functional, unidentified influenza virus.
Assay [7] relates to Influenza A virus. In words: Antiviral activity against influenza virus A strain H7N7 (FPV) was determined as zone of plaque inhibition. Format: functional, unidentified influenza virus.
Assay [8] concerns Newcastle disease virus. Put plainly: Antiviral activity against newcastle disease virus strain Russeff (NDV) was determined as zone of cytotoxicity. Format: functional, avian paramyxovirus 1. The arrangement: unit not given here.
The test system of assay [9] is Newcastle disease virus. In words: Antiviral effect against newcastle disease virus strain Russeff (NDV) by the difference between zone of plaque inhibition and zone of cytotoxicity; (11-12 mm). Format: functional, avian paramyxovirus 1.
Assay [10] deals with Newcastle disease virus. Put plainly: Antiviral effect against newcastle disease virus strain Russeff (NDV) by the difference between zone of plaque inhibition and zone of cytotoxicity. The assay is classed as functional, avian paramyxovirus 1.
Assay [11] relates to Suid alphaherpesvirus 1. Put plainly: Antiviral effect against pseudorabies virus strain Anjeszky A2 by the difference between zone of plaque inhibition and zone of cytotoxicity. Format: functional.
Assay [12] relates to Newcastle disease virus. In words: Antiviral effect against newcastle disease virus strain Russeff (NDV) by the difference between zone of plaque inhibition and zone of cytotoxicity; (6-10 mm). The assay is classed as functional, avian paramyxovirus 1.
Assay [13] relates to Influenza A virus. Put plainly: Antiviral effect against influenza virus A strain H7N7 (FPV) by the difference between zone of plaque inhibition and zone of cytotoxicity; (6-10 mm). The assay is classed as functional, unidentified influenza virus.
Assay [14] concerns Influenza A virus. Put plainly: Antiviral effect against influenza virus A strain H7N7 (FPV) by the difference between zone of plaque inhibition and zone of cytotoxicity; (11-12 mm). The assay is classed as functional, unidentified influenza virus.
Assay [15] relates to Suid alphaherpesvirus 1. Put plainly: Antiviral effect against pseudorabies virus strain Anjeszky A2 by the difference between zone of plaque inhibition and zone of cytotoxicity; (21-40 mm). The assay is classed as functional.
The test system of assay [16] is Newcastle disease virus. Put plainly: Antiviral effect against newcastle disease virus strain Russeff (NDV) by the difference between zone of plaque inhibition and zone of cytotoxicity; (21-40 mm). Format: functional, avian paramyxovirus 1.

For the molecule `CC(C)(C)OC(=O)NCC(=O)OC[C@H]1O[C@@H](n2cnc(C(N)=O)n2)[C@@H]2OC(C)(C)O[C@@H]21`, the Activity turned out to be 23.5 in the assay with Suid alphaherpesvirus 1 [1]; 31.5 mm in the assay with Newcastle disease virus [2]; 5 mM in the assay on Influenza A virus [3]; 15 in the assay on Suid alphaherpesvirus 1 [4]; 10 mM with Suid alphaherpesvirus 1 [5]; 10.2 mm in the assay with Influenza A virus [6]. Further, the Activity with Influenza A virus [7] is given as 0 mm; in the assay with Newcastle disease virus [8] it was 19; in the assay with Newcastle disease virus [9], 12 mM.

For the molecule `CC(C)(C)OC(=O)N[C@@H](Cc1c[nH]c2ccccc12)C(=O)OCC1OC(n2cnc(C(N)=O)n2)C2OC(C)(C)OC12` (stereo partly drawn), the Activity amounted to 0 with Suid alphaherpesvirus 1 [1]; 0 mm in the assay on Newcastle disease virus [2]; 5 mM in the assay with Influenza A virus [3]; 5 mM in the assay on Newcastle disease virus [10]; 9 with Suid alphaherpesvirus 1 [4]; 10.7 mm with Influenza A virus [6]. Also, the Activity in the assay with Influenza A virus [7] was 15.7 mm; in the assay on Suid alphaherpesvirus 1 [11], 5 mm; with Newcastle disease virus [8], 10.7.

`CC(C)(C)OC(=O)N1CCC[C@H]1C(=O)OCC1OC(n2cnc(C(N)=O)n2)C2OC(C)(C)OC12` (stereo partly drawn): the Activity in the assay with Suid alphaherpesvirus 1 [1] is listed as 0; with Newcastle disease virus [2], 16.5 mm; in the assay with Suid alphaherpesvirus 1 [4], 10; in the assay on Newcastle disease virus [12] it was 10 mM; in the assay with Influenza A virus [6], 14 mm; with Influenza A virus [7], 22.8 mm. In addition, the values for the Activity in the assay on Influenza A virus [13], in the assay with Suid alphaherpesvirus 1 [11] and in the assay with Newcastle disease virus [8] were 10 mM, 5 mm and 8.7, respectively.

Consider `CC(C)(C)OC(=O)N[C@@H](Cc1ccccc1)C(=O)OCC1OC(n2cnc(C(N)=O)n2)C2OC(C)(C)OC12` (stereo partly drawn), for which the Activity in the assay with Suid alphaherpesvirus 1 [1] is given as 0; in the assay with Newcastle disease virus [2] it was 0 mm; with Newcastle disease virus [10], 5 mM; in the assay with Suid alphaherpesvirus 1 [4] it was 16.5; in the assay with Influenza A virus [6], 9.2 mm; with Influenza A virus [7] it was 19.3 mm. The Activity stood at 12 mM in the assay with Influenza A virus [14], 5 mm with Suid alphaherpesvirus 1 [11] and 16.5 in the assay with Newcastle disease virus [8].

Take `CC(C)C[C@H](NC(=O)OC(C)(C)C)C(=O)OCC1OC(n2cnc(C(N)=O)n2)C2OC(C)(C)OC12` (stereo partly drawn): the Activity is on record as 18 in the assay on Suid alphaherpesvirus 1 [1]; 28 mm with Newcastle disease virus [2]; 16 in the assay with Suid alphaherpesvirus 1 [4]; 8.3 mm with Influenza A virus [6]; 16.8 mm in the assay on Influenza A virus [7]; 10 mM in the assay on Influenza A virus [13]. Besides, the Activity in the assay on Suid alphaherpesvirus 1 [11] was found to be 5 mm; in the assay with Newcastle disease virus [8], 16; in the assay on Newcastle disease virus [9], 12 mM.

On to `NC(=O)c1ncn([C@@H]2O[C@H](CO)[C@@H](O)[C@H]2O)n1` [RIBAVIRIN], for which the Activity with Suid alphaherpesvirus 1 [15] was found to be 40 mM; with Influenza A virus [14], 12 mM; in the assay on Newcastle disease virus [16] it was 40 mM.

Values taken from ChEMBL document CHEMBL1128032, “Synthesis and antiviral activity of amino acid esters of ribavirin” (1994).
